Experimental data published in the supplement of paper PMC11208160.

test: recombinant barcode read abundance after kanamycin selection (control-corrected) (log10(CPM+1)); higher = more efficient recombination; sequences stand for … in AGTGCAGAGAAAATCGGCCAGTTTTCTCTGCCTGCAGTCCGCATGCCGT…AGATTTATGCAGCGGACTGCCTTTCTCCCAAAGTGATAAACCGGACAGTATCATGGACCGGTTTTCCCGGTAATCCGTATTTGCAAGGTTGGTTTCACT; site = the 11-nt target
In short: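 Recombination efficiency in this pooled E. coli screen uses counts per million of barcodes at recombinant junctions, averaged and corrected against the control. The reported form is log10(CPM+1). Two replicates were plated on chloramphenicol/ampicillin LB agar as control and two on chloramphenicol/ampicillin/kanamycin with 0.1 mM IPTG.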
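Also: IS621 recombinase and bridge RNA in Escherichia coli cells.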

Sequence	recombinant barcode read abundance (log10)
GCACCGCCTTGGGTTCTAACCTGTTGCCT (site GCACCGCCTAG)	1.09
GCACCGCCTTGGGTTCTAACCTGTTGCCT (site TCACCGCCTAG)	0.0378
GCACGCCCTTGGGTTCTAACCTGTTGCCT (site GCACGCCCTAG)	0.711
GCACGCCCTTGGGTTCTAACCTGTTGCCT (site TCCCGCCCTAG)	0.0743
GCACGCCCTTGGGTTCTAACCTGTTGCTT (site GCACGCCCTAA)	0.737
GCACGCCCTTGGGTTCTAACCTGTTGCTT (site GCGCGGCCTAA)	0.181
GCACTCCCTTGGGTTCTAACCTGTTGCCT (site GCACTCCCTAG)	0.0516
GCACTCCCTTGGGTTCTAACCTGTTGCCT (site GCCCTCCCTAG)	0.0585
GCACTCCCTTGGGTTCTAACCTGTTGCCT (site GCGCTCCCTAG)	0.199
GCACTCCCTTGGGTTCTAACCTGTTGCCT (site GCTCTCCCTAG)	0.831
GCAGAGTCTTGGGTTCTAACCTGTTGCCT (site GAAGAGTCTAG)	0.201
GCAGAGTCTTGGGTTCTAACCTGTTGCCT (site GCAGAGTCTAG)	2.1
GCAGAGTCTTGGGTTCTAACCTGTTGCCT (site GGAGAGTCTAG)	0.0924
GCAGAGTCTTGGGTTCTAACCTGTTGCCT (site GTAGAGTCTAG)	1.06
GCAGGGACTTGGGTTCTAACCTGTTGCCT (site GAAGGGACTAG)	0.56
GCAGGGACTTGGGTTCTAACCTGTTGCCT (site GCAGGGACTAG)	1.9
GCAGGGACTTGGGTTCTAACCTGTTGCCT (site GGAGGGACTAG)	0.313
GCAGGGACTTGGGTTCTAACCTGTTGCCT (site GTAGGGACTAG)	1.02

Sequence	recombinant barcode read abundance (log10)
GCAGGTACTTGGGTTCTAACCTGTTGCCT (site ACAGGTACTAG)	0.508
GCAGGTACTTGGGTTCTAACCTGTTGCCT (site CCAGGTACTAG)	0.401
GCAGGTACTTGGGTTCTAACCTGTTGCCT (site GCAGGTACTAG)	1.17
GCAGGTACTTGGGTTCTAACCTGTTGCCT (site TCAGGTACTAG)	0.466
GCAGGTGCTTGGGTTCTAACCTGTTGCTT (site ATTTCGACTCC)	0.0721
GCAGGTGCTTGGGTTCTAACCTGTTGCTT (site GCAGGTGCTAA)	1.75
GCATACACTTGGGTTCTAACCTGTTGCCA (site GCATACACTTG)	1.48
GCATACACTTGGGTTCTAACCTGTTGCCA (site TGCAGGGCTCC)	0.0903
GCATCTACTTGGGTTCTAACCTGTTGCTA (site CATAACGCTAG)	0.185
GCATCTACTTGGGTTCTAACCTGTTGCTA (site GCATCTACTTA)	0.0861
GCCAAACCTTGGGTTCTAACCTGTTGCTA (site GCCAAACCTTA)	0.0929
GCCAAACCTTGGGTTCTAACCTGTTGCTA (site GTCAAGCCTTA)	0.176
GCCAGACCTTGGGTTCTAACCTGTTGCCT (site GCCAAACCTAG)	0.0596
GCCAGACCTTGGGTTCTAACCTGTTGCCT (site GCCACACCTAG)	0.0708
GCCAGACCTTGGGTTCTAACCTGTTGCCT (site GCCAGACCTAG)	0.373
GCCAGACCTTGGGTTCTAACCTGTTGCCT (site GCCATACCTAG)	0.112
GCCAGCTCTTGGGTTCTAACCTGTTGCTG (site CAATTTCCTAT)	0.169
GCCAGCTCTTGGGTTCTAACCTGTTGCTG (site GCCAGCTCTCA)	0.581
